Results reported in paper PMC467089, “Click estradiol dimers with novel aromatic bridging units: synthesis and anticancer evaluation” (Journal of Enzyme Inhibition and Medicinal Chemistry, 2024).

Columns and labels:
porcine brain tubulin = target: T1, porcine brain tubulin (Sus scrofa, UniProt P02550+P02554); assay: Tubulin polymerisation assay; assay type: biochemical; conditions: 10 μmol/L, Vmax relative to DMSO
T1 construct: purchased Cytoskeleton, Denver, CO; host or cells: porcine brain (tissue-purified)
T1 sequence (P02550 whole entry): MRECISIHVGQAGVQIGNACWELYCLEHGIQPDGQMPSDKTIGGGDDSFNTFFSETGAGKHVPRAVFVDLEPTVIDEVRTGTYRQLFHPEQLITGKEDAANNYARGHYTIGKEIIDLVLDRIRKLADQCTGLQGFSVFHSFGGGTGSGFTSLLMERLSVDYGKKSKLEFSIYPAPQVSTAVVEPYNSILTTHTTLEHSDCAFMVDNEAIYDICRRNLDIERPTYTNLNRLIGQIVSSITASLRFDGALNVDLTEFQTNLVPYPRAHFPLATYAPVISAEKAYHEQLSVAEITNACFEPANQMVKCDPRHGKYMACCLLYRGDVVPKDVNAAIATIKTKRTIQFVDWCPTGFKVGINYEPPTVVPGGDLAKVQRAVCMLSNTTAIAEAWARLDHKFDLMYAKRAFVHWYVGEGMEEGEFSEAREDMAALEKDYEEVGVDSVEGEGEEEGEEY
T1 sequence (P02554 whole entry): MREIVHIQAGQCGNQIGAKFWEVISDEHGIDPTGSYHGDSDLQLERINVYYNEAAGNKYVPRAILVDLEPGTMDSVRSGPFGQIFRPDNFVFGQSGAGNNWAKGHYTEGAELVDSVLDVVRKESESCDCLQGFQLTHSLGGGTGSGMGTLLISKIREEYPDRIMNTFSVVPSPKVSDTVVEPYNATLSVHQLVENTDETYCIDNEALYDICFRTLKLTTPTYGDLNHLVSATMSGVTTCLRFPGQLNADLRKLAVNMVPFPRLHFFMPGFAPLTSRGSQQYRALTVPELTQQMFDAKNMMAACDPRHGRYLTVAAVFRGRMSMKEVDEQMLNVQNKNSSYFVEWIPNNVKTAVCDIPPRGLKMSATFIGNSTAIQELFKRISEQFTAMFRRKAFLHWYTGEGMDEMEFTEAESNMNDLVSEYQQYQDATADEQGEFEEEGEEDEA
Experimental: Tubulin polymerisation assay kit (Cytoskeleton, Denver, CO) was used according to the manufacturer’s instructions. Polymerisation of porcine brain tubulin (>99% purity) was measured using an EnVision Multilabel Plate Reader (PerkinElmer, Waltham, MA) at 37 °C, in the presence of either 10 μmol/L test compounds or DMSO. Maximum polymerisation velocity (Vmax) was calculated from the polymerisation curves. Data visualisation was performed in OriginPro 2018b (b9.5.5.409) software (OriginLab Corporation, Northampton, MA)[10].

[1] = system: A549 (lung adenocarcinoma); assay: MTS cytotoxicity assay, A549; assay type: cell-based, human
Experimental: (§1) The p53 deficient variant, HCT116p53−/−, was purchased from Horizon Discovery (Cambridge, UK). The daunorubicin-resistant CCRF-CEM cell line CEM-DNR bulk and paclitaxel-resistant K562-TAX sublines were developed in-house by exposing parental cell lines to escalating concentrations of daunorubicin and paclitaxel, respectively. Cells were maintained in the recommended culture medium (Sigma-Aldrich, St. Louis, MO) supplemented with 10% foetal calf serum, 100 U/mL penicillin, and 100 μg/mL streptomycin. The HUVEC line was obtained from PromoCell (Heidelberg, Germany). The cells were cultured in endothelial cell growth medium with SupplementMix for endothelial cells (PromoCell, Heidelberg, Germany). The incubation conditions were a humidified atmosphere of 95% air and 5% CO2 at 37 °C[10]. Cells were seeded in 384-well plates and after overnight incubation treated with compounds. All tested compounds were dissolved in 100% DMSO, and fourfold serial dilutions were performed using an Echo550 liquid handler (Labcyte, San Jose, CA). The experiments were performed in technical duplicates and three biological replicates. Cells were incubated with compounds for 72 h and thereafter 5 μL of MTS reagent was added to each well.

[2] = system: CEM-DNR (daunorubicin resistant variant of CCRF-CEM); assay: MTS cytotoxicity assay, CEM-DNR; assay type: cell-based, human; conditions: Homo sapiens, CEM-DNR, 72 h, read-out: IC50 cytotoxic activity CEM-DNR
Experimental: as §1

[3] = MTS cytotoxicity assay, HUVEC; assay type: cell-based; conditions: human
Experimental: as §1

[4] = MTS cytotoxicity assay, BJ; assay type: cell-based; conditions: human
Experimental: as §1

[5] = system: K562-TAX (paclitaxel-resistant variant of K562); assay: MTS cytotoxicity assay, K562-TAX; assay type: cell-based, human; conditions: Homo sapiens, K562-Tax, 72 h, read-out: IC50 cytotoxic activity K562-TAX
Experimental: as §1

[6] = system: K562 (chronic myelogenous leukaemia); assay: MTS cytotoxicity assay, K562; assay type: cell-based; conditions: Homo sapiens, K562, 72 h, read-out: IC50 cytotoxic activity K562
Experimental: as §1

[7] = MTS cytotoxicity assay, MRC-5; assay type: cell-based; conditions: human
Experimental: as §1

CCRF-CEM lymphoblasts [8] = assay: BrDU incorporation analysis (DNA synthesis); assay type: cell-based, human
Experimental: (§2) To further characterise the mode of action of studied compounds, we analysed the cell cycle profile of CCRF-CEM cells treated with compounds for 24 h. […] The compounds ED1–ED9 and ED12 induced arrest in G2/M phase of the cell cycle (Figure 2(A)). To differentiate between G2 block and mitotic arrest, we used phospho-histone H3 (Ser10) mitotic marker (Figure 2(B)). […] Generally, dimers induced a dose-dependent increase of sub G1 cell population with fragmented DNA except for ED2 and ED4 (Figure 2(C)). […] To assess the proliferation of treated cells, they were subjected to 5-bromo-2-deoxyuridine (BrDU) labelling. […] Analogously, changes in 5-bromouridine (BrU) incorporation were examined to monitor overall RNA synthesis.
Thirty minutes before harvesting, cells were pulse-labelled with 10 μM BrDU. After overnight fixation in ice-cold 70% ethanol, cells were resuspended in 2 M HCl for 30 min at room temperature (RT), then washed with 0.1 M Na2B4O7 and blocked with PBS containing 0.5% Tween-20 and 1% BSA. BrDU incorporation was analysed using anti-BrdU antibody clone MoBu-1 (Exbio, Vestec, Czech Republic) and a secondary anti-mouse-FITC antibody (Sigma-Aldrich, St. Louis, MO). Cells were washed with PBS and stained with 0.1 mg/mL propidium iodide and 0.5 mg/mL RNase A for 1 h at RT and analysed by flow cytometry using a 488 nm single beam laser (FACSCalibur, Becton Dickinson, Franklin Lakes, NJ). The percentage of cells with incorporated BrDU was analysed using CellQuest software.

CCRF-CEM lymphoblasts [9] = assay: Cell cycle analysis by flow cytometry (propidium iodide); assay type: cell-based, human
Experimental: as §2
(§3) Treated CCRF-CEM cells were harvested, washed with ice-cold phosphate-buffered saline (PBS), fixed in cold 70% ethanol and stored at −20 °C. Prior to analysis, fixed cells were permeabilised with 0.25% Triton X-100 in PBS for 15 min, blocked in 1% bovine serum, and incubated with anti-phospho-Histone H3 (Ser^10) antibody (Merck Millipore, Burlington, MA). Subsequently, the cells were treated with 50 μg/mL RNAse, stained with propidium iodide and analysed by FACSCalibur (Becton Dickinson, Franklin Lakes, NJ) flow cytometer at 488 nm. Cell cycle distribution (G1, S, and G2/M) was analysed using ModFitLT software (Verity, Topsham, ME), and reflects only viable population prior to the fixing procedure. Particles with lower propidium iodide content than G1 phase cells were classified as non-viable cells with fragmented DNA. Flow cytometry data visualisation was performed using OriginPro 2018b (b9.5.5.409) software (OriginLab Corporation, Northampton, MA)[10].

CCRF-CEM lymphoblasts [10] = assay: BrU incorporation analysis (RNA synthesis); assay type: cell-based, human
Experimental: as §2
Prior to the trypsinisation, cells were treated with 1 mM BrU for 30 min. Subsequently, the cells were fixed in 1% paraformaldehyde with 0.05% of NP-40 for 15 min at RT and stored overnight at 4 °C. Fixed cells were washed with 1% glycine in PBS and stained with primary anti-BrdU antibody clone MoBu-1 crossreacting with BrU (Exbio, Vestec, Czech Republic) for 30 min at RT, washed with PBS and labelled with secondary anti-mouse-FITC antibody (Sigma-Aldrich, St. Louis, MO). Following 1-h incubation in 1% paraformaldehyde containing 0.05% NP-40, cells were stained with propidium iodide (0.1 mg/mL) and treated with RNase A (0.5 mg/mL) for 1 h at RT. The percentage of BrU positive cells was quantified using CellQuest software.

U2OS (osteosarcoma) = assay: MTS cytotoxicity assay, U2OS; assay type: cell-based, human
Experimental: as §1

[11] = system: HCT116p53−/− (p53 gene null variant of HCT116); assay: MTS cytotoxicity assay, HCT116p53−/−; assay type: cell-based; conditions: Homo sapiens, HCT-116, 72 h, read-out: IC50 cytotoxic activity HCT116p53-
Experimental: as §1

[12] = system: CCRF-CEM (childhood T-cell acute lymphoblastic leukaemia); assay: MTS cytotoxicity assay, CCRF-CEM; assay type: cell-based; conditions: Homo sapiens, 72 h, read-out: IC50 cytotoxic activity CCRF-CEM
Experimental: as §1

CCRF-CEM lymphoblasts [13] = assay: Phospho-histone H3 (Ser10) mitotic marker, flow cytometry; assay type: cell-based, human
Experimental: as §2, §3

[14] = system: HCT116 (colorectal adenocarcinoma); assay: MTS cytotoxicity assay, HCT116; assay type: cell-based; conditions: Homo sapiens, HCT-116, 72 h, read-out: IC50 cytotoxic activity HCT116
Experimental: as §1

C[C@]12CC[C@@H]3c4ccc(O)cc4CC[C@H]3[C@@H]1CC[C@@]2(O)c1cn(Cc2c(Cl)c(Cl)c(Cl)c(Cn3cc([C@]4(O)CC[C@H]5[C@@H]6CCc7cc(O)ccc7[C@H]6CC[C@@]54C)nn3)c2Cl)nn1 [ED11, 17,17′-[(2,4,5,6-Tetrachloro-1,3-phenylene)bis(methylene-1H-1,2,3-triazole-1,4-diyl)]di[estra-1,3,5(10)-triene-3,17β-diol]]
inhibitory activity against tubulin polymerisation (in words) (porcine brain tubulin): inactive

CC(=O)Oc1cc(Cn2cc([C@]3(O)CC[C@H]4[C@@H]5CCc6cc(O)ccc6[C@H]5CC[C@@]43C)nn2)cc(Cn2cc([C@]3(O)CC[C@H]4[C@@H]5CCc6cc(O)ccc6[C@H]5CC[C@@]43C)nn2)c1 [ED4, 3,5-Bis({4-[(17β)-3,17-dihydroxyestra-1,3,5(10)-trien-17-yl]-1H-1,2,3-triazol-1-yl}methyl)phenyl acetate]
IC50 cytotoxic activity A549 [1]: did not exhibit activity
IC50 ([1]; Homo sapiens, A549, 72 h, read-out: IC50 cytotoxic activity A549): > 50 µM
IC50 [2]: > 50 µM
IC50 at 72 h [3]: 0.016 ± 0.006 µM
IC50 at 72 h [4]: > 50 µM
inhibitory activity against tubulin polymerisation (in words) (porcine brain tubulin): comparable or better inhibitory activity
IC50 [5]: > 50 µM
IC50 [6]: 0.49 ± 0.04 µM
IC50 at 72 h [7]: > 50 µM
BrDU, % of positive cells (CCRF-CEM lymphoblasts [8]; 1×IC50, 24 h): 26.50%
BrDU, % of positive cells (CCRF-CEM lymphoblasts [8]; 5×IC50, 24 h): 7.16%
<G1 (sub-G1, fragmented DNA), % of positive cells (CCRF-CEM lymphoblasts [9]; 1×IC50, 24 h): 61.81%
>G2/M (polyploidy), % of positive cells (CCRF-CEM lymphoblasts [9]; 1×IC50, 24 h): 6.75%
G0/G1, % of positive cells (CCRF-CEM lymphoblasts [9]; 1×IC50, 24 h): 25.61%
G2/M, % of positive cells (CCRF-CEM lymphoblasts [9]; 1×IC50, 24 h): 40.50%
S, % of positive cells (CCRF-CEM lymphoblasts [9]; 1×IC50, 24 h): 33.89%
<G1 (sub-G1, fragmented DNA), % of positive cells (CCRF-CEM lymphoblasts [9]; 5×IC50, 24 h): 31.27%
>G2/M (polyploidy), % of positive cells (CCRF-CEM lymphoblasts [9]; 5×IC50, 24 h): 10.24%
G0/G1, % of positive cells (CCRF-CEM lymphoblasts [9]; 5×IC50, 24 h): 8.75%
G2/M, % of positive cells (CCRF-CEM lymphoblasts [9]; 5×IC50, 24 h): 71.41%
S, % of positive cells (CCRF-CEM lymphoblasts [9]; 5×IC50, 24 h): 19.84%
BrU, % of positive cells (CCRF-CEM lymphoblasts [10]; 1×IC50, 24 h): 66.58%
BrU, % of positive cells (CCRF-CEM lymphoblasts [10]; 5×IC50, 24 h): 3.26%
IC50 cytotoxic activity U2OS (U2OS (osteosarcoma)): did not exhibit activity
IC50 (U2OS (osteosarcoma); Homo sapiens, U2OS, 72 h, read-out: IC50 cytotoxic activity U2OS): > 50 µM
IC50 [11]: 2.15 ± 0.1 µM
IC50 [12]: 1.09 ± 0.11 µM
mitosis-specific phosphorylation of histone H3 (in words) (CCRF-CEM lymphoblasts [13]; 1× and 5×IC50, 24 h): did not induce an increase of mitosis-specific phosphorylation of histone H3
pH3Ser10, % of positive cells (CCRF-CEM lymphoblasts [13]; 1×IC50, 24 h): 1.25%
pH3Ser10, % of positive cells (CCRF-CEM lymphoblasts [13]; 5×IC50, 24 h): 0.12%
IC50 [14]: 2.06 ± 0.18 µM
